From article PMC9995496, “A screen for MeCP2-TBL1 interaction inhibitors using a luminescence-based assay” (Scientific Reports, 2023)

Target: T1, MeCP2-TBL1 interaction (MeCP2-SmBiT / TBL1-LgBiT) (Mus musculus, UniProt Q9QXE7)
T1 construct: expressed in transfected cells; crude lysate used as a cell-free assay
T1 sequence (Q9QXE7 166-527): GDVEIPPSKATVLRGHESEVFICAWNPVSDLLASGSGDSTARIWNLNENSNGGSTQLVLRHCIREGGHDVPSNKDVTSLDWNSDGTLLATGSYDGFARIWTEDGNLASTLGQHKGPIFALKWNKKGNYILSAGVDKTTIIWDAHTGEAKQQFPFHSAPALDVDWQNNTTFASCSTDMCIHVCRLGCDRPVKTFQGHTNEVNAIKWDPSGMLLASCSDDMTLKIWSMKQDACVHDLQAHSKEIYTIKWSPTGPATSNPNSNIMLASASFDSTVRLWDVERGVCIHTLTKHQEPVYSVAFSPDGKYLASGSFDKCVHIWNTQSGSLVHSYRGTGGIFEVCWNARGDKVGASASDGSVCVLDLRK
Assay: MeCP2-TBL1 NanoLuc luciferase complementation assay (cell-free, extracts of transfected HEK293 cells);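 further: each compound tested at 20 µM final concentration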
Assay type: binding, human
Procedure, shortened: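 Cell-free split NanoLuc: lysate of HEK293 cells co-expressing the MeCP2 C-terminal half-SmBiT and TBL1 WD domain-LgBiT, mixed 1:1 with furimazine. After 30 min at room temperature, luminescence was plate-median normalized.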

[1] = primary screen of the Asinex library, sheet "Sargen output Asinex library", one well per compound, Batch Ref. 1
[2] = primary screen of the Asinex library, sheet "Sargen output Asinex library", one well per compound
[3] = primary screen of Asinex library, single well per compound

| Compound | Inhibition percent [2] [%] | other results |
| --- | --- | --- |
| Cn1cc(CC(=O)N2C[C@@H](c3cccc(F)c3)[C@@]3(CCCCC(=O)N3)C2)c2ccccc21 [BDH_32306274] | – | Inhibition percent [1]: 1.56% |
| CC(C)(NC(=O)c1ccccc1)C(=O)N1C[C@@H](c2ccc(F)cc2)[C@@]2(CCCC(=O)N2)C1 [BDH_32326628] | 0.18 | – |
| CC(C)(NC(=O)c1ccccc1)C(=O)N1C2CCC1CC(Cc1ccc3ccncc3c1)C2 (centres unmarked) [BDH_32326823] | -1.86 | – |
| CC(C)(NC(=O)Cc1ccccc1)C(=O)N1CCCC(Cc2cccc3ncccc23)C1 (centres unmarked) [BDH_32327552] | – | Inhibition percent [3]: -4.87 |
| CC(C)(NC(=O)Cc1ccccc1)C(=O)N1CCCC(Cc2cccn3ccnc23)CC1 (centres unmarked) [BDH_32327598] | – | Inhibition percent [3]: -2.43 |
| CC(C)(NC(=O)CCc1ccccc1)C(=O)N1CCC(Cc2ccc3ncccc3c2)CC1 [BDH_32328019] | – | Inhibition percent [3]: -2.64 |
| CN(C)c1cncc(C2CCCN2C(=O)C2(C)CCN(C(=O)c3cccc(F)c3)CC2)n1 (centres unmarked) [BDH_32329258] | -1.39 | – |
| Cc1cccc(Oc2cncc(C3CCCN(C(=O)c4ccc(-n5cccn5)nc4)C3)n2)c1 (centres unmarked) [BDH_32330488] | 5.13 | – |
| O=C1OC2(CCCN(C(=O)c3ccc(-n4cccn4)nc3)CC2)CN1Cc1ccccc1 (centres unmarked) [BDH_32330719] | -2.98 | – |
| CC(=O)NC(F)(Cc1ccccc1)C(=O)N1CCC(Cc2cccc3cccnc23)CC1 (centres unmarked) [BDH_32336432] | 15.90 | – |
| COc1ccc(C2(C(=O)N3CCCCC3CCNC(=O)c3ccccc3)CCCC2)cc1 (centres unmarked) [BDH_32336950] | – | Inhibition percent [1]: 6.01% |
| O=C(c1ccccc1Cn1ccnc1)N1CCCC(c2cncc(Oc3ccccc3)n2)C1 (centres unmarked) [BDH_32338420] | – | Inhibition percent [1]: 3.75% |
| Cc1nccn1Cc1ccccc1C(=O)N1CCCC(Cc2cccc3cccnc23)C1 (centres unmarked) [BDH_32339247] | -0.91 | – |
| Cc1nccn1Cc1ccccc1C(=O)N1CCCC(Cc2cccc3cccnc23)CC1 (centres unmarked) [BDH_32339298] | 3.41 | – |
| Cc1nccn1Cc1ccccc1C(=O)N1CCCC(Cc2cccc3ccncc23)CC1 (centres unmarked) [BDH_32339307] | – | Inhibition percent [3]: -0.56 |
| O=C(c1cccc(Cn2ccnc2)c1)N1CCCC(c2nccnc2Oc2ccccc2)C1 (centres unmarked) [BDH_32339912] | -0.06 | – |
| C[C@]12C[C@@H](Cc3ccccc3)N(C(=O)c3cccc(Cn4ccnc4)c3)[C@H]1CCCC(=O)N2 [BDH_32339936] | – | Inhibition percent [3]: 5.72 |
| Cc1cccc(Oc2cncc(C3CCCN(C(=O)c4cccc(-n5cnnc5)c4)C3)n2)c1 (centres unmarked) [BDH_32340252] | -3.70 | – |
| O=C(c1cccc(-n2cnnc2)c1)N1CCOCC(Cc2cccc3occc23)C1 (centres unmarked) [BDH_32340409] | -8.70 | – |
| O=C(c1ccccc1Cn1cccn1)N1CCCC1c1cncc(Cc2cccc(F)c2)n1 (centres unmarked) [BDH_32340865] | 0.32 | – |
| O=C(N1CCC(Cc2ccc3ncccc3c2)CC1)C1(c2ccccc2)CCOCC1 [BDH_32341682] | – | Inhibition percent [3]: 1.41 |
| O=C(N1CCC(Cc2cccc3cccnc23)CC1)C1(c2ccccc2)CCOCC1 [BDH_32341683] | – | Inhibition percent [3]: 6.68 |
| COc1ccc(C(=O)N2CCCC(Cc3ccccn3)C2)cc1NCc1cccnc1 (centres unmarked) [BDH_32341951] | – | Inhibition percent [3]: -2.98 |
| O=C(c1ccccc1CN1CCOCC1)N1CCCC(Cc2cnc3ccccc3c2)CC1 (centres unmarked) [BDH_32342370] | -1.09 | – |
| O=C(c1ccccc1CN1CCCC1)N1CCC2(CC1)COC(Cc1cccc(F)c1)C2 (centres unmarked) [BDH_32342523] | 5.16 | – |
| Cc1ccc(C2(C(=O)N3CCC4(CC3)CC(Oc3ccccc3)CO4)CCOCC2)cc1 (centres unmarked) [BDH_32343765] | – | Inhibition percent [3]: 1.12 |
| COc1ccc(C2(C(=O)N3CCC(Cc4ccc5ncccc5c4)CC3)CCOCC2)cc1 [BDH_32344075] | -2.33 | – |
| COc1ccc(C2(C(=O)N3CCC(Cc4cccc5cccnc45)CC3)CCOCC2)cc1 [BDH_32344076] | 3.92 | – |

| Compound | Inhibition percent [2] [%] | other results |
| --- | --- | --- |
| CN(C)c1cncc(C2CCCN2C(=O)c2ccccc2OCCN2CCOCC2)n1 (centres unmarked) [BDH_32345043] | – | Inhibition percent [3]: 1.00 |
| CN1CCN(c2cc(C(=O)N3CCCCC3CCNC(=O)c3ccccc3)ccn2)CC1 (centres unmarked) [BDH_32345153] | – | Inhibition percent [3]: -1.36 |
| c1ccc(COc2cccc(CN3CCOCC(Cc4ccc5nccn5n4)C3)c2)nc1 (centres unmarked) [BDH_32351403] | -0.41 | – |
| O=C1CCCC[C@]2(CN(Cc3ccnc(N4CCOCC4)n3)C[C@H]2c2cccc(F)c2)N1 [BDH_32352634] | -4.25 | – |
| O=C1CCCC[C@]2(CN(Cc3ccnc(N4CCCCC4)n3)C[C@H]2c2ccccc2)N1 [BDH_32353018] | – | Inhibition percent [3]: -0.90 |
| O=C1CCCC[C@]2(CN(Cc3ccnc(N4CCCCC4)n3)C[C@H]2c2cccc(F)c2)N1 [BDH_32353019] | – | Inhibition percent [1]: 1.21% |
| O=C(c1ccccc1OCCN1CCOCC1)N1CCCC(Cc2ccnc3ccccc23)CC1 (centres unmarked) [BDH_32353619] | -1.00 | – |
| O=C(c1ccccc1OCCN1CCOCC1)N1CCCC(Cc2cccc3cccnc23)CC1 (centres unmarked) [BDH_32353622] | – | Inhibition percent [1]: 2.11% |
| O=C(c1ccccc1CN1CCCC1)N1CCCC(c2cccc(Cc3ccccc3F)n2)C1 (centres unmarked) [BDH_32353816] | 1.91 | – |
| CC(C)(NC(=O)c1cccc(F)c1)C(=O)N1CCC(c2cccc(Cc3ccccc3)n2)CC1 [BDH_32354126] | -0.56 | – |
| Cc1nonc1COc1ccccc1C(=O)N1CCCC(Cc2ccnc3ccccc23)CC1 (centres unmarked) [BDH_32354216] | -0.73 | – |
| Cc1nonc1COc1ccccc1C(=O)N1CCCC(Cc2cccc3cccnc23)CC1 (centres unmarked) [BDH_32354219] | 4.81 | – |
| Cc1noc(C)c1COc1cccc(C(=O)N2CCCC(Cc3cccc4cnccc34)CC2)c1 (centres unmarked) [BDH_32354458] | – | Inhibition percent [1]: 1.54% |
| CN1CCC(Cc2cccc(F)c2)(C(=O)N2CCCC(Cc3cccc4ncccc34)C2)CC1 (centres unmarked) [BDH_32354496] | -4.55 | – |
| CN1CCC(Cc2cccc(F)c2)(C(=O)N2CCC(Cc3cccc4cccnc34)CC2)CC1 [BDH_32354499] | -1.74 | – |
| CN1CCC(Cc2ccc(F)cc2)(C(=O)N2CCC(Cc3cccc4cccnc34)CC2)CC1 [BDH_32354505] | -1.95 | – |
| CC(C)(NC(=O)COc1ccccc1)C(=O)N1CCC(Cc2cccc3ncccc23)CC1 [BDH_32354908] | – | Inhibition percent [3]: -2.23 |
| Cc1nonc1COc1ccccc1C(=O)N1CCCC(Cc2ccc3ccncc3c2)CC1 (centres unmarked) [BDH_32355894] | – | Inhibition percent [1]: 5.62% |
| Cc1ccc(Oc2ncccc2C(=O)N2CCC(c3cccc(Cc4ccccc4)n3)CC2)cn1 [BDH_32356013] | – | Inhibition percent [1]: 10.27% |
| Cc1nonc1COc1ccccc1C(=O)N1C2CCC1CC(Cc1cnc3ccccc3c1)C2 (centres unmarked) [BDH_32356179] | – | Inhibition percent [3]: 3.35 |
| Cc1cc(C)n(-c2cccc(C(=O)N3CCCC(c4cncc(Oc5ccccc5)n4)C3)c2)n1 (centres unmarked) [BDH_32356802] | – | Inhibition percent [3]: -1.24 |
| O=C(c1cccc(Nc2ncccn2)c1)N1C2CCC1CC(Cc1ccc3ccncc3c1)C2 (centres unmarked) [BDH_32356948] | – | Inhibition percent [3]: 3.03 |
| O=C1OC2(CCCN(Cc3ccccc3OCc3ccccn3)CC2)CN1c1ccc(F)cc1 (centres unmarked) [BDH_32357695] | – | Inhibition percent [3]: 1.61 |
| Cc1cccc(Oc2cncc(C3CCCN(C(=O)c4ccnc(N5CCN(C)CC5)c4)C3)n2)c1 (centres unmarked) [BDH_32358106] | – | Inhibition percent [1]: 0.42% |
| O=C1CCCN1CCOc1cccc(C(=O)N2CCCC(Cc3ccnc4ccccc34)CC2)c1 (centres unmarked) [BDH_32358595] | – | Inhibition percent [3]: -2.39 |
| CN(C)CC(=O)N1CCCC(C)(C(=O)N2CCC(c3cccc(Cc4ccccc4)n3)CC2)C1 (centres unmarked) [BDH_32359557] | – | Inhibition percent [1]: 2.74% |
| COc1ccc(C(=O)N2CCCC(Cc3cccc4ncccc34)C2)cc1NCc1ccncc1 (centres unmarked) [BDH_32359947] | – | Inhibition percent [3]: -3.52 |

More lines, main results first:

| Inhibition percent [2] [%] | Compound | other results |
| --- | --- | --- |
| 0.45 | O=C(CC1CCN(C(=O)C2(c3ccc(F)cc3)CCCC2)CC1)Nc1ccc2nccnc2c1 [BDH_32356175] | – |
| -4.31 | O=C(NCCC1CCCCN1C(=O)c1ccnc(Oc2cccc(F)c2)c1)c1ccccc1 (centres unmarked) [BDH_32356851] | – |
| -2.36 | CN1CCCC(CCCc2cnccn2)(C(=O)N2CCC(Cc3cccc4cccnc34)CC2)C1 (centres unmarked) [BDH_32356918] | – |
| 0.88 | Cc1ccc(Oc2cc(C)nc(C3CCCCN3C(=O)c3ccnc(-c4cnn(C)c4)c3)n2)cc1 (centres unmarked) [BDH_32357088] | – |
| -2.19 | O=C(c1ccccc1OCCN1CCOCC1)N1CCCC(Cc2ccc3ncccc3c2)C1 (centres unmarked) [BDH_32358044] | – |
| -1.62 | Cc1cc(Oc2ccccc2)nc(C2CCN(C(=O)c3ccnc(N4CCN(C)CC4)c3)CC2)n1 [BDH_32358107] | – |
| 1.07 | O=C1CCCC[C@]2(CN(Cc3ccccc3OCc3ccccn3)C[C@H]2c2ccc(F)cc2)N1 [BDH_32358404] | – |
| -12.20 | O=C1CCCN1CCOc1cccc(C(=O)N2CCCC(Cc3cnc4ccccc4c3)CC2)c1 (centres unmarked) [BDH_32358596] | – |
| -0.32 | O=C1CCCN1CCOc1ccccc1C(=O)N1CCCC(Cc2ccc3ncccc3c2)CC1 (centres unmarked) [BDH_32358602] | – |
| 2.06 | COc1ccc(C2(C(=O)N3CCCC(Cc4cccc5ccncc45)CC3)CCOCC2)cc1 (centres unmarked) [BDH_32359024] | – |
| -1.22 | Fc1cccc(COc2ccccc2CN2CCOCC(Cc3cn4ccnc4cn3)C2)c1 (centres unmarked) [BDH_32359710] | – |
| -0.97 | COc1ccccc1[C@@H]1CN(Cc2cccc(Oc3ncccn3)c2)C[C@]12CCCCC(=O)N2 [BDH_32359781] | – |
| 3.25 | Cc1cc(Oc2ccccc2)nc(C2CCN(C(=O)C3(C)CCN(c4ncccn4)CC3)CC2)n1 [BDH_32359876] | – |
